What all share (format): in vivo
Data set [1] relates to carrageenan-induced mouse paw swelling. Briefly: carrageenan-induced mouse paw swelling model. Conditions: for Circumference of the paw after administration: 180 min after onset of inflammation (0.5% carrageenan); for inhibition in vivo at 0.26 mg/kg / inhibition in vivo at 13 mg/kg / inhibition in vivo at 130 mg/kg / change in vivo at 130 mg/kg: Mus musculus, po, 3 h; for inhibition in vivo at 0.26 mg/kg: dosage 0.26 mg/kg; for inhibition in vivo at 0.26 mg/kg / inhibition in vivo at 13 mg/kg / inhibition in vivo at 130 mg/kg: read-out: Swelling inhibition rate; for inhibition in vivo at 13 mg/kg: dosage 13 mg/kg; for change in vivo at 130 mg/kg: read-out: Swelling degree. As to the method:
The anti-inflammatory effects of the compounds prepared in the above Examples were detected using a carrageenan-induced mouse paw swelling model, and the control sample was methylprednisolone:
Carrageenan-induced mouse paw swelling model is a classical acute inflammation model commonly used for evaluating or screening anti-inflammatory effects of drugs. When carrageenan is injected into the paw of mice, a series of reactions similar to human acute inflammation such as local capillary dilatation, increased vascular permeability, exudation and edema can be caused, so the model can be widely used in the evaluation of new drugs.
Reference for experimental method: Yang Huan, Cheng Xiao, Wang Yuehua, Du Guanhua. Effects of esculin on the swelling of toes and inflammation induced by carrageenan in mice [J]. Chinese Journal of New Drugs, 2016(25):2322.
On the day of the experiment, the circumference of right hind paw (cm) of each mouse was measured firstly, and then, after the onset of inflammation, the circumference of right hind paw was measured so that the difference of the circumferences of the paws before and after inflammation was swelling degree, and the swelling inhibition rate of paw (swelling inhibition rate %=(C−T)/C*100%); C=swelling rate of the control group %, and T=swelling rate of the treatment group) was calculated.
(2) Gavage administration was performed once a day for seven consecutive days. The circumference of the right hind paw was marked and measured before the last administration, and the average value of the two measurements was taken as the standard. 30 min after the last administration, 20 μL/mice of 0.5% carrageenan was injected into the right hind ankle of the mice to induce inflammation, and the circumference of paw was measured 180 min after the onset of inflammation. […]
A general note: Carrageenan injected into the paw causes an acute inflammation.

The subject of another data set is ICR mice. The settings on record: p.o. The method, then:
The experiment was designed according to the “Technical Guideline for Acute Toxicity Test of Chemical Drugs” issued by the State Food and Drug Administration in March 2005. The doses administered were 4 g/kg, 4.91 g/kg, 6.14 g/kg, 7.68 g/kg, 9.6 g/kg, 12 g/kg, and 15 g/kg (the dose could be adjusted according to the actual test results), 12 ICR mice per dose group. If the administration volume is greater than 0.5 ml, it is better to perform the drug administration in two or more times (Note: according to the national standard GB 15193.3-2014, if multiple drug administrations are required, the time interval should be 4 h to 6 h each time, and the patient should be fasted on the day before drug administration).

For data set [2], the system named is rat paw swelling induced by monosodium urate (MSU). As to the kind of experiment: rat paw swelling model induced by monosodium urate (MSU). The settings on record: for inhibition in vivo at 90 mg/kg / inhibition in vivo at 0.36 mg/kg / inhibition in vivo at 1.8 mg/kg / inhibition in vivo at 9 mg/kg / change in vivo at 90 mg/kg: Rattus norvegicus, po; for inhibition in vivo at 90 mg/kg / inhibition in vivo at 0.36 mg/kg / inhibition in vivo at 1.8 mg/kg / inhibition in vivo at 9 mg/kg: 1 h, read-out: Swelling inhibition rate; for inhibition in vivo at 0.36 mg/kg: dosage 0.36 mg/kg; for inhibition in vivo at 1.8 mg/kg: dosage 1.8 mg/kg; for inhibition in vivo at 9 mg/kg: dosage 9 mg/kg; for change in vivo at 90 mg/kg: read-out: Swelling degree; for Mean volume of paw after administration: 1 h after onset of inflammation (50 μL 2% MSU). An excerpt: Gout is a disease unique to human, and gouty arthritis is an inflammatory reaction caused by the deposition of monosodium urate (MSU) in local joint tissues. Since purine metabolism pathways in some mammals such as mice and rabbits are different from those in humans, it is impossible to construct a gouty arthritis model by the method of interfering with purine metabolism disorders, so the most direct method for causing gouty arthritis is to directly inject MSU into the joint cavity of the model animal. The model is only used for simulating local joint inflammation of gout, is suitable for observation of local arthritis symptoms, is a common method for screening anti-inflammatory effects of gout drugs at present, and has the advantages of stability, easy operation and the like. (Reference: Li Na, Hua Long, and Yuan Hui. Research progress of gout animal models [J]. Medical theory and practice, 2016(24).
The anti-gout effect of the compound prepared in the above Example was detected by using a rat paw swelling model induced by monosodium urate (MSU), and the control sample was methylprednisolone.
Experimental method: MSU was used as an inflammatory agent, injected subcutaneously into the hind paws of rats to cause paw swelling, and then the volume of the paws was measured, and the swelling rates and swelling inhibition rates of the treatment group and the control group were compared. On the day of the experiment, the volume of right hind paw (ml) of each rat was measured firstly, and then after the onset of inflammation, the volume of right hind paw was measured so that the difference of volume of paw before and after inflammation was swelling degree, and the swelling inhibition rate of paw (swelling inhibition rate %=(C−T)/C*100%); C=swelling rate of the control group %, and T=swelling rate of the treatment group) was calculated. This method is one of the commonly used methods for screening anti-inflammatory effects of gout drugs, and the model is stable and easy to operate.
(2) One week before the subcutaneous injection of MSU into the feet and soles of the rats, the rats were given different doses of the test drugs, and the drugs were given by gavage once a day, for seven consecutive days. The circumference of the right hind paw was marked and measured before the last administration, and the average value of the two measurements was taken as the standard. 1 h after the last administration, animals in other groups were given 50 μL of 2% MSU in addition to the blank control group, and the paw circumference was measured 1 h after the onset of inflammation. […]

[3] abbreviates: ICR mice, 130 mg/kg by gavage once a day for seven days, 180 min after onset of inflammation.
The mark [4] stands for this setting: ICR mice, 130 mg/kg by gavage once a day for seven days.
The mark [5] stands for this setting: mouse, carrageenan-induced paw swelling.
[6] abbreviates: mouse, carrageenan-induced paw swelling, dosage 130 mg/kg.
Where [7] appears, read: SD rats, 90 mg/kg by gavage once a day for seven days, 1 h after onset of inflammation.
The mark [8] stands for this setting: rat, MSU-induced paw swelling, dosage 90 mg/kg.
Setting [9] is: SD rats, 90 mg/kg by gavage once a day for seven days.

This is an account of results in patent US20230159583A1, “COMPOUND FOR TREATING GOUT, PREPARATION METHOD THEREFOR, AND USE THEREOF” (Huazhong Pharmaceutical Co., Ltd., priority 2020, published 2023).

Read-outs that look alike come from different tables or passages of the source.

Consider `C[C@H]1C[C@@H]2[C@H]([C@@H](O)C[C@@]3(C)[C@H]2CC[C@]3(O)/C(CO)=N/O)[C@@]2(C)C=CC(=NO)C=C12` [Example 1, (6S,8S, 9S, 10R, 11S, 13S, 14S, 17R)-11,17-dihydroxy-17-((E)-2-hydroxy-1-(hydroxyimino)ethyl)-6,10,13-trimethyl-6,7,8,9,10,11,12,13,14,15,16,17-dodecahydro-3H-cyclopentane[α]phenanthrene-3-one oxime], for which the values for the Swelling value in data set [1] (setting [3]) and in data set [2] (setting [7]) were 0.01 cm and 0.01 mL, respectively. Besides, in data set [1] (setting [4]), the “Circumference of the paw after administration” value (“Circumference of the paw” below) worked out at 1.46 cm. Besides, the inhibition in vivo at 0.26 mg/kg in data set [1] (setting [5]) turned out to be 10.3%. In addition, in data set [1] (setting [5]), the inhibition in vivo at 13 mg/kg came out at 58.1%. Moreover, the inhibition in vivo at 130 mg/kg came out at 97.4% in data set [1] (setting [6]) and 96.4% in data set [1] (setting [3]). For the same molecule, the change in vivo at 130 mg/kg in data set [1] (setting [3]) came out at 0.69%. In addition, the Mortality in the data set with ICR mice (4 g/kg), in the data set with ICR mice (4.91 g/kg), in the data set with ICR mice (6.14 g/kg), in the data set on ICR mice (7.68 g/kg), in the data set with ICR mice (9.6 g/kg) and in the data set on ICR mice (12 g/kg) was 0/12 throughout. Besides, the Mortality in the data set on ICR mice (15 g/kg) was 0/12. In addition, the inhibition in vivo at 90 mg/kg was 99.7% in data set [2] (setting [7]) and 97.4% in data set [2] (setting [8]). In data set [2] (rat, MSU-induced paw swelling), the inhibition in vivo at 0.36 mg/kg is 12.1%. Besides, in data set [2] (rat, MSU-induced paw swelling), the inhibition in vivo at 1.8 mg/kg came to 45.2%. For the same molecule, in data set [2] (rat, MSU-induced paw swelling), the inhibition in vivo at 9 mg/kg worked out at 68.2%. Moreover, in data set [2] (setting [7]), the change in vivo at 90 mg/kg came to 0.85%. The “Mean volume of paw after administration” value in data set [2] (setting [9]) came to 1.19 mL.
Regarding `CC(=O)OC/C(=N\O)[C@@]1(O)CC[C@H]2[C@@H]3C[C@H](C)C4=CC(=NO)C=C[C@]4(C)[C@H]3[C@@H](O)C[C@@]21C` [Example 2, (2E)-2-((6S,8S,9S,10R,11S,13S,14S,17R)-11,17-dihydroxy-3-(hydroxyimino)-6,10,13-trimethyl-6,7,8,9,10,11,12,13,14,15,16,17-dodecahydro-3H-cyclopentane[α]phenanthrene-17-yl)-2-(hydroxyimino)ethyl acetate], the Swelling value in data set [1] (setting [3]) came to 0.01 cm; in data set [2] (setting [7]), 0.04 mL. Further, the “Circumference of the paw” value in data set [1] (setting [4]) was 1.43 cm. In data set [1] (setting [5]), the inhibition in vivo at 0.26 mg/kg turned out to be 15.1%. In addition, the inhibition in vivo at 13 mg/kg in data set [1] (setting [5]) stood at 63.1%. The inhibition in vivo at 130 mg/kg in data set [1] (setting [6]) came out at 96.2%; in data set [1] (setting [3]), 96.4%. The change in vivo at 130 mg/kg in data set [1] (setting [3]) came to 0.7%. In addition, the Mortality is reported as 0/12 in the data set with ICR mice (4 g/kg); 0/12 with ICR mice (4.91 g/kg); 0/12 in the data set with ICR mice (6.14 g/kg); 0/12 in the data set with ICR mice (7.68 g/kg); 1/12 in the data set on ICR mice (9.6 g/kg); 4/12 in the data set with ICR mice (12 g/kg). The Mortality in the data set on ICR mice (15 g/kg) was 6/12. Also, the figures for the inhibition in vivo at 90 mg/kg in data set [2] (setting [7]) and in data set [2] (setting [8]) were 99% and 98.2%, respectively. Also, the inhibition in vivo at 0.36 mg/kg in data set [2] (rat, MSU-induced paw swelling) came out at 15.1%. For the same molecule, the inhibition in vivo at 1.8 mg/kg in data set [2] (rat, MSU-induced paw swelling) was 32.1%. The inhibition in vivo at 9 mg/kg in data set [2] (rat, MSU-induced paw swelling) was 52.1%. The change in vivo at 90 mg/kg in data set [2] (setting [7]) came out at 3.23%. In data set [2] (setting [9]), the “Mean volume of paw after administration” value came to 1.28 mL.
For the molecule `CCON=C1C=C[C@@]2(C)C(=C1)[C@@H](C)C[C@@H]1[C@@H]2[C@@H](O)C[C@@]2(C)[C@H]1CC[C@]2(O)/C(CO)=N/OCC` [Example 9, (6S,8S,9S,10R,11S,13S,14S,17R,E)-17-((E)-1-(ethoxysimino)-2-hydroxyethyl)-11,17-dihydroxy-6,10,13-trimethyl-6,7,8,9,10,11,12,13,14,15,16,17-dodecahydro-3H-cyclopentane[α]phenanthrene-3-ketoO-ethyl oxime], the Mortality with ICR mice (4 g/kg), in the data set on ICR mice (4.91 g/kg), in the data set with ICR mice (6.14 g/kg), in the data set on ICR mice (7.68 g/kg), in the data set with ICR mice (9.6 g/kg) and with ICR mice (12 g/kg) was 0/12 in each case. Besides, the Mortality with ICR mice (15 g/kg) is on record as 2/12.
Regarding `C[C@H]1C[C@@H]2[C@H]([C@@H](O)C[C@@]3(C)[C@H]2CC[C@]3(O)C(=O)CO)[C@@]2(C)C=CC(=O)C=C12` [Methylprednisolone, methylprednisolone, reference compound], in data set [1] (setting [3]), the Swelling value worked out at 0.15 cm, the change in vivo at 130 mg/kg amounted to 10.1% and the inhibition in vivo at 130 mg/kg is 47.6%. Further, the “Circumference of the paw” value in data set [1] (setting [4]) is 1.63 cm. Besides, in data set [1] (setting [5]), the inhibition in vivo at 0.26 mg/kg came out at 12.1% and the inhibition in vivo at 13 mg/kg came out at 31.4%. The inhibition in vivo at 130 mg/kg in data set [1] (setting [6]) came out at 51.2%. In data set [2] (setting [7]), the inhibition in vivo at 90 mg/kg came out at 53.8%, the change in vivo at 90 mg/kg amounted to 152% and the Swelling value came to 1.87 mL. Besides, in data set [2] (rat, MSU-induced paw swelling), the inhibition in vivo at 0.36 mg/kg turned out to be 12.3%, the inhibition in vivo at 1.8 mg/kg came to 17.6% and the inhibition in vivo at 9 mg/kg turned out to be 43.5%. Also, the inhibition in vivo at 90 mg/kg in data set [2] (setting [8]) is 55.4%. Further, the “Mean volume of paw after administration” value in data set [2] (setting [9]) was found to be 3.1 mL.
